Source: US8269010B2, “3-amino-pyridine derivatives for the treatment of metabolic disorders” (Piramal Healthcare Limited, priority 2006, dated 2012)

Columns and labels:
[1] = test system: insulin resistant adipocytes (3T3 L1); assay: In vitro model exhibiting insulin resistance (IR assay): 14C-2-deoxyglucose uptake; assay type: cell-based; settings: glucose uptake; for fold induction at 10 µM: Mus musculus, dexamethasone-induced insulin resistant 3T3 L1 adipocytes, test compound 10 μM/mL, vehicle = 1.0, cut off 1.50 fold, read-out: Fold activity (fold activity over vehicle); for % of Rosiglitazone (comparison with Rosiglitazone): insulin resistant 3T3 L1 adipocytes, test compound 10 μM vs Rosiglitazone 0.1 μM
Protocol: The assay was designed as in the reference, British Journal of Pharmacology, 130, 351-58, 2000, the disclosure of which is incorporated by reference for the teaching of the assay. The solution of test compound (10 μM/mL) was prepared in DMSO. […] Differentiation into adipocytes was induced by the known methods as described below. (See, also, J. Biol. […] 3T3 L1 fibroblasts were seeded in 24- or 6-well plates at a density of 0.5−2×10^4 cells/well and were allowed to reach maximal confluency. The confluent fibroblasts were exposed to culture medium for 2 days. […] The mature adipocytes were exposed to dexamethasone, 100 nM added in ethanol, in culture medium and incubated for 2 days. […] The test compound was also present during this period. After 3-4 hours, the medium was aspirated and replaced with Kreb's Ringer phosphate (KRP) buffer at pH 7.4 and with human/porcine insulin, 200 nM. The cells were incubated for 30 minutes at 37° C. […] After exactly 5 minutes, the plates were transferred to ice trays and medium was rapidly aspirated. The cell layer was washed twice with ice-cold phosphate buffered saline, (PBS), pH 7.4. […] Non-specific glucose uptake was assayed in wells exposed to cytochalasin B, inhibitor of glucose transport. […] Statistical analysis was performed using unpaired t-test.

[2] = test system: genetically diabetic db/db BL/6J mice; assay: Screening in db/db BL/6J mice: reduction of plasma glucose levels; assay type: in vivo; settings: 10 days
Protocol: The protocol was designed as in references. • 1.
The screening of compounds was based on their ability to reduce the plasma glucose levels in genetically diabetic db/db BL/6J mice.
Male db/db mice (obtained from the Animal House of Nicholas Piramal Research Centre, Goregaon, Mumbai, India) were used for this study (body weight in the range of 30-40 g and age is 6-8 weeks) and were kept eight per cage in individually ventilated cages at controlled temperature (22±1° C.) and humidity (45±5%). Food and water were provided ad libitum during their laboratory stay, except for four hours fasting prior to blood sample collection. 12 hours light and dark cycle was followed during the whole study period.
After 4 hours fasting blood samples were collected from mice. Mice showing plasma glucose levels between 300 to 500 mg/dl were divided in groups (8-10 per group) such that the mean plasma glucose levels and variation within the group, for each group, is nearly same. After grouping, mice in respective groups received treatment with 0.5% CMC vehicle, standard compound or test compounds for 10 days.
After 4 hours fasting, mice were anaesthetized using isoflurane (inhalation anesthetic), and blood samples were collected through the retro orbital plexus. Collected blood samples were centrifuged at 7000 rpm for 10 minutes at 4° C.; Separated plasma was used for estimation of plasma glucose using diagnostic kits (Diasys, Germany). Plasma glucose levels of treated groups were normalized with control group using the following formula, which accounted for the changes in control group.
Formula used for normalization was *:{1−[…]}×100.

Mouse PPARγ = target: T1, Mouse PPARγ (Mus musculus, UniProt P37238); assay: Mouse PPARγ assay (TransAM PPARγ ELISA, 3T3-L1 fibroblasts); assay type: cell-based; settings: test compound 50 μM, 72 hrs
T1 construct: endogenous in cells; host or cells: 3T3-L1 fibroblasts
T1 sequence (P37238 1-505): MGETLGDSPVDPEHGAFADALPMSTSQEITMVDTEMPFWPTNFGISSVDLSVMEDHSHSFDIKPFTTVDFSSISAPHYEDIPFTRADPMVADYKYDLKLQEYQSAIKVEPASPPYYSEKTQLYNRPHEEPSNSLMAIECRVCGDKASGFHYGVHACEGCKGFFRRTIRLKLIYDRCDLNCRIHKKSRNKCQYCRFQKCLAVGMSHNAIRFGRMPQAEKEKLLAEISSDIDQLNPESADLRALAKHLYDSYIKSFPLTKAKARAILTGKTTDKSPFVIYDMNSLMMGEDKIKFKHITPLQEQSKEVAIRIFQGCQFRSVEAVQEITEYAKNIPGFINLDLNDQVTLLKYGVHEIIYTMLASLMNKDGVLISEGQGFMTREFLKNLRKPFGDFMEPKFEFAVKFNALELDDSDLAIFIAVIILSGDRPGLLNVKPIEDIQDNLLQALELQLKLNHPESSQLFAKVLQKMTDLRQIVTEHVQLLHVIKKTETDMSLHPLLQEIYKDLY
Protocol: The assay was designed as in the reference, Blood, 104(5), 1361-8, 2004, the disclosure of which is incorporated by reference for the teaching of the assay.
3T3-L1 fibroblasts were seeded in 6-well plates at a density of 4×10^4 cells/well and cultured in DMEM containing 10% calf serum. After 4-5 days, when the cells become confluent, each of test compound was added (from a 20 mM stock in DMSO) to the final concentration of 50 μM in DMEM supplemented with 10% FCS. […] The plates were incubated for 72 hrs at 37° C. in a CO2 incubator with fresh medium containing test substances added after first 48 hrs. After 72 hrs, the medium was removed; the cell layer was washed and processed for the PPARγ assay as per the instruction of the manufacturer (Active Motif, North America, California, USA). PPARγ activation was determined using 96-well ELISA assay as per the instruction manual (TransAM PPARγ. Active Motif, Cat 0.40196). Assay Readout was absorbance output from spectrophotometer for the mouse PPARγ assay. Luminescence data output was recorded for the human PPARγ assay.

With O=S(=O)(Nc1cnc(Oc2cc3ccccc3cn2)c(Cl)c1)c1ccc(Cl)cc1F [Example 13, 4-Chloro-N-(5-chloro-6-(isoquinolin-3-yloxy)pyridin-3-yl)-2-fluorobenzenesulfonamide] the fold induction at 10 µM [1] was 1.4 ± 0.07 and the “% of Rosiglitazone (comparison with Rosiglitazone)” value [1] was 19.5 ± 3.51%.

In the case of O=S(=O)(c1ccc(Cl)cc1Cl)N(c1cnc(Oc2cnc3ccccc3c2)c(Cl)c1)S(=O)(=O)c1ccc(Cl)cc1Cl [Example 45, 2,4-Dichloro-N-[(2,4-dichlorophenyl)sulfonyl]-N-[5-chloro-6-(quinolin-3-yloxy)pyridin-3-yl]-benzenesulfonamide], the fold induction at 10 µM [1] is reported as 2.13 ± 0.04 and the “% of Rosiglitazone (comparison with Rosiglitazone)” value [1] is reported as 59.5 ± 2.26%.

In the case of O=S(=O)(Nc1cnc(Oc2cnc3ccccc3c2)c(Cl)c1)c1ccc(Cl)cc1Cl [Example 27, 2,4-Dichloro-N-(5-chloro-6-(quinolin-3-yloxy)pyridin-3-yl)benzenesulfonamide], the fold induction at 10 µM [1] is reported as 2.01 ± 0.23 and the “% of Rosiglitazone (comparison with Rosiglitazone)” value [1] is reported as 57 ± 15.64%.

O=S(=O)(Nc1cnc(Oc2cnc3ccccc3c2)c(Cl)c1)c1ccc(C(F)(F)F)cc1Cl [Example 33, 2-Chloro-N-(5-chloro-6-(quinolin-3-yloxy)pyridin-3-yl)-4-(trifluoromethyl)benzene-sulfonamide] was tested, and the fold induction at 10 µM [1] was 2.58 ± 0.11 and the “% of Rosiglitazone (comparison with Rosiglitazone)” value [1] was 68.59 ± 4.81%.

In the case of O=S(=O)(Nc1cnc(Oc2cc3ccccc3cn2)c(Cl)c1)c1ccc(OC(F)(F)F)cc1 [Example 18, N-(5-Chloro-6-(isoquinolin-3-yloxy)pyridin-3-yl)-4-(trifluoromethoxy)benzene-sulfonamide], the fold induction at 10 µM [1] is reported as 1.77 ± 0.1 and the “% of Rosiglitazone (comparison with Rosiglitazone)” value [1] is reported as 65%.

With N#Cc1ccc(S(=O)(=O)Nc2cnc(Oc3cc4ccccc4cn3)c(Cl)c2)cc1 [Example 5, N-(5-Chloro-6-(isoquinolin-3-yloxy)pyridin-3-yl)-4-cyanobenzenesulfonamide] the fold induction at 10 µM [1] was 2.41 ± 0.12 and the “% of Rosiglitazone (comparison with Rosiglitazone)” value [1] was 55.1 ± 4.8%.

With COc1ccc(S(=O)(=O)Nc2cnc(Oc3cc4ccccc4cn3)c(Cl)c2)cc1 [Example 24, N-(5-Chloro-6-(isoquinolin-3-yloxy)pyridin-3-yl)-4-methoxybenzenesulfonamide] the fold induction at 10 µM [1] was 1.8 ± 0.32, the “% of Rosiglitazone (comparison with Rosiglitazone)” value [1] was 46.2 ± 23.8% and the “Normalization with control (plasma glucose)” value (“Normalization with control” below) ([2]; 150 mpk od) was “Inactive”.

For COc1ccc(S(=O)(=O)Nc2cnc(Oc3cc4ccccc4cn3)c(Cl)c2)cc1OC [Example 22, N-(5-Chloro-6-(isoquinolin-3-yloxy)pyridin-3-yl)-3,4-dimethoxybenzenesulfonamide], the fold induction at 10 µM [1] was 1.76 ± 0.58 and the “% of Rosiglitazone (comparison with Rosiglitazone)” value [1] was 15.8 ± 1.8%.

For COc1ccc(S(=O)(=O)Nc2cnc(Oc3cnc4ccccc4c3)c(Cl)c2)cc1OC [Example 30, N-(5-Chloro-6-(quinolin-3-yloxy)pyridin-3-yl)-3,4-dimethoxybenzenesulfonamide], the “PPARγ activity (% of rosiglitazone)” value (Mouse PPARγ) was 8.18%, the fold induction at 10 µM [1] was 1.84 ± 0.02 and the “Normalization with control” value ([2]; 50 mpk bid) was 76.2 ± 19.2.

With Cc1ccc(S(=O)(=O)Nc2cnc(Oc3cc4ccccc4cn3)c(Cl)c2)cc1Cl [Example 3, 3-Chloro-N-(5-chloro-6-(isoquinolin-3-yloxy)pyridin-3-yl)-4-methylbenzenesulfonamide] the fold induction at 10 µM [1] was 2.3 ± 0.16 and the “% of Rosiglitazone (comparison with Rosiglitazone)” value [1] was 52 ± 6.5%.

With Cc1ccc(S(=O)(=O)Nc2cnc(Oc3cnc4ccccc4c3)c(Cl)c2)cc1 [Example 28, N-(5-Chloro-6-(quinolin-3-yloxy)pyridin-3-yl)-4-methylbenzenesulfonamide] the fold induction at 10 µM [1] was 2.6 ± 0.17 and the “% of Rosiglitazone (comparison with Rosiglitazone)” value [1] was 71.77 ± 7.48%.

For Cc1ccc(S(=O)(=O)Nc2cnc(Oc3cc4ccccc4cn3)c(Cl)c2)cc1 [Example 16, N-(5-Chloro-6-(isoquinolin-3-yloxy)pyridin-3-yl)-4-methylbenzenesulfonamide], the “PPARγ activity (% of rosiglitazone)” value (Mouse PPARγ) was 18.85%, the fold induction at 10 µM [1] was 1.6 ± 0.13 and the “% of Rosiglitazone (comparison with Rosiglitazone)” value [1] was 38.47 ± 7.98%.

In the case of O=S(=O)(Nc1cnc(Oc2cnc3ccccc3c2)c(Cl)c1)c1ccc(F)cc1 [Example 35, N-(5-Chloro-6-(quinolin-3-yloxy)pyridin-3-yl)-4-fluorobenzenesulfonamide], the fold induction at 10 µM [1] is reported as 2.44 ± 0.08 and the “% of Rosiglitazone (comparison with Rosiglitazone)” value [1] is reported as 62.36 ± 3.51%.

With O=S(=O)(Nc1cnc(Oc2cc3ccccc3cn2)c(Cl)c1)c1ccc(F)cc1Cl [Example 15, 2-Chloro-N-(5-chloro-6-(isoquinolin-3-yloxy)pyridin-3-yl)-4-fluorobenzenesulfonamide] the “PPARγ activity (% of rosiglitazone)” value (Mouse PPARγ) was 0%, the fold induction at 10 µM [1] was 1.7 ± 0.02 and the “% of Rosiglitazone (comparison with Rosiglitazone)” value [1] was 45.25 ± 1.04%.

O=S(=O)(Nc1cnc(Oc2cc3ccccc3cn2)c(Cl)c1)c1ccc(C(F)(F)F)cc1Cl [Example 20, 2-Chloro-N-(5-chloro-6-(isoquinolin-3-yloxy)pyridin-3-yl)-4(trifluoromethyl)benzene sulfonamide] was tested, and the fold induction at 10 µM [1] was 2.4 ± 0.68 and the “% of Rosiglitazone (comparison with Rosiglitazone)” value [1] was 36.7 ± 0.96%.

With COc1ccc(OC)c(S(=O)(=O)Nc2cnc(Oc3cc4ccccc4cn3)c(Cl)c2)c1 [Example 19, N-(5-Chloro-6-(isoquinolin-3-yloxy)pyridin-3-yl)-2,5-dimethoxybenzenesulfonamide] the fold induction at 10 µM [1] was 1.67 ± 0.13 and the “% of Rosiglitazone (comparison with Rosiglitazone)” value [1] was 50 ± 10.12%.

With O=S(=O)(Nc1cnc(Oc2cnc3ccccc3c2)c(Cl)c1)c1ccc(F)cc1F [Example 34, N-(5-Chloro-6-(quinolin-3-yloxy)pyridin-3-yl)-2,4-difluorobenzenesulfonamide] the “PPARγ activity (% of rosiglitazone)” value (Mouse PPARγ) was 8.17%, the fold induction at 10 µM [1] was 1.7 ± 0.08 and the “% of Rosiglitazone (comparison with Rosiglitazone)” value [1] was 43.59 ± 4.77%. For the same compound, the “Normalization with control” value ([2]; 50 mpk bid) was 57.2 ± 19.1.

For O=S(=O)(Nc1cnc(Oc2cc3ccccc3cn2)c(Cl)c1)c1ccc(Cl)c(Cl)c1 [Example 17, 3,4-Dichloro-N-(5-chloro-6-(isoquinolin-3-yloxy)pyridin-3-yl)benzenesulfonamide], the “PPARγ activity (% of rosiglitazone)” value (Mouse PPARγ) was 12.57%, the fold induction at 10 µM [1] was 1.26 ± 0.02 and the “% of Rosiglitazone (comparison with Rosiglitazone)” value [1] was 21.20 ± 1.5%.

For O=S(=O)(Nc1cnc(Oc2cnc3ccccc3c2)c(Cl)c1)c1ccc(Cl)c(Cl)c1 [Example 29, 3,4-Dichloro-N-(5-chloro-6-(quinolin-3-yloxy)pyridin-3-yl)benzenesulfonamide], the fold induction at 10 µM [1] was 2.01 ± 0.09 and the “% of Rosiglitazone (comparison with Rosiglitazone)” value [1] was 76 ± 6.11%.

For O=S(=O)(Nc1cnc(Oc2ccc3ncccc3c2)c(Cl)c1)c1ccc(F)cc1F [Example 48, N-(5-Chloro-6-(quinolin-6-yloxy)pyridin-3-yl)-2,4-difluorobenzenesulfonamide], the fold induction at 10 µM [1] was 1.82 ± 0.13 and the “% of Rosiglitazone (comparison with Rosiglitazone)” value [1] was 36.7 ± 7.3%.
